Results on five molecules are retold here after PMC9655119, “Sustained Activation of CLR/RAMP Receptors by Gel-Forming Agonists” (International Journal of Molecular Sciences, 2022).

Read-outs that look alike come from different tables or passages of the source.

Assay type in all cases: cell-based
For experiment [1], the target named is T1, human CLR/RAMP1 (Homo sapiens, UniProt O60894+Q16602).
T1 construct: host or cells: 1321N1 cells (cAMP Hunter cell line)
The experiment in a line: CLR/RAMP1 receptor-activation assay (DiscoverX cAMP Hunter, HitHunter cAMP XS+). Conditions: for Emax: read-out: CLR/RAMP1 Max Activity. As for the experimental part:
(§1) The bioactivity of peptide analogs was studied using CLR/RAMP1, CLR/RAMP2, and CLR/RAMP3 assays by DiscoveRx (Fremont, CA, USA) in cells that stably express human CLR/RAMP1 (1321N1 cells), CLR/RAMP2 (CHO-K1 cells), or CLR/RAMP3 (CHO-K1 cells). The dose-dependent stimulatory effect of agonists was studied in duplicate, at 10 different concentrations. Determination of the half-maximal effective concentration (EC50) was performed using a 10-point dose-response curves. The starting concentration was 1.0 μM, and it was serially diluted 3-fold, in DMSO.
Cells were seeded in a total volume of 20 μL into 384-well microplates, and the activity was determined using the DiscoverX HitHunter cAMP XS + assay. Before the assay, media was aspirated from cells and replaced with 15 μL 2:1 HBSS/10 mM Hepes: cAMP XS + Ab reagent. Intermediate dilution of samples was performed to generate 4X sample in assay buffer, and 5 μL of the 4X sample was added to cells and incubated at 37°C. Vehicle concentration was 1%.
The chemiluminescent signal was read with a PerkinElmer instrument.

In experiment [2] the test system is primary human lymphatic microvascular endothelial (HLME) cells. The experiment in a line: HLME cell survival (MTT assay). To be noted: 30, 100, 300 nmoles/L, medium with 0.1% FBS, 72 h, quintuplicate samples. The method, then: (§2) Primary human lymphatic microvascular endothelial cells (HLME cells; Cell Applications, Inc., San Diego, CA, USA) were maintained in a microvascular endothelial cell growth medium supplemented with 10% fetal bovine serum (FBS). […] After 72-h incubation, cell viability was determined with the 3-(4,5-dimethylthiazol-2-yl)-2,5-diphenyltetrazolium bromide (MTT) assay (Promega). To evaluate the effects on endothelial cell survival, HLME cells were treated with different concentrations of the agonist or controls (30, 100, and 300 nmoles/L) and cultured in a basal medium with 0.1% FBS for 72 h. Cell viability was then assayed with the MTT assay.
(Formazan colour is commonly taken as a measure of viable cells.)

For experiment [3] the test system is unchanged. The experiment in a line: HLME cell proliferation (MTT assay). Conditions: 30, 100, 300 nmoles/L, medium with 2% FBS, 72 h, quintuplicate samples. As for the experimental part: as §2
Experiment [4] has as its target T2, human CLR/RAMP2 (Homo sapiens, UniProt O60895+Q16602).
T2 construct: host or cells: CHO-K1 cells (PathHunter β-Arrestin cell line)
The experiment in a line: CLR/RAMP2 receptor-activation assay (PathHunter β-Arrestin). To be noted: […], read-out: CLR/RAMP2 Max Activity. The method, then:
as §1
In this assay, the CLR was fused in frame with a small enzyme donor fragment ProLink™ (PK). The receptor was co-expressed with a fusion protein of β-arrestin and an N-terminal deletion mutant of β-galactosidase (i.e., enzyme acceptor). Activation of the CLR/RAMP2 receptor stimulated the binding of β-arrestin to the PK-tagged receptor and led to an increase in enzyme activities which can then be measured with the PathHunter detection reagents. PathHunter cell lines were seeded in a total volume of 20 μL into 384-well microplates and incubated at 37 °C prior to the assay. Intermediate dilution of samples was performed to generate 5X samples in the assay buffer. A 5 μL aliquot of 5X sample was added to cells and incubated at 37 °C for 90 min. Vehicle concentration was 1%.

Where [5] appears, read: percentage of positive control β-CGRP.

T2 sequence (Q16602 23-461): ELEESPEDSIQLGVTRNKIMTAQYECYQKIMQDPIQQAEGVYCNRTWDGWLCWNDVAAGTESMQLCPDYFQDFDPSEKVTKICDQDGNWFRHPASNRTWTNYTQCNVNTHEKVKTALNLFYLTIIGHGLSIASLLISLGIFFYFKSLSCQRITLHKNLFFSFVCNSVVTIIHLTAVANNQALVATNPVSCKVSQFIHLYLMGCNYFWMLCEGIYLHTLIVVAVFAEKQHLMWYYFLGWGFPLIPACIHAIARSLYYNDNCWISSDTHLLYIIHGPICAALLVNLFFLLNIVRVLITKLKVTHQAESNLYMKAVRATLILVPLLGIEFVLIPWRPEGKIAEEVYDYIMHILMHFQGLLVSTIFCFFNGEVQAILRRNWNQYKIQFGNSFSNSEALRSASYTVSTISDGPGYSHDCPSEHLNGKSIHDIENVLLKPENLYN
T2 sequence (O60895 43-175): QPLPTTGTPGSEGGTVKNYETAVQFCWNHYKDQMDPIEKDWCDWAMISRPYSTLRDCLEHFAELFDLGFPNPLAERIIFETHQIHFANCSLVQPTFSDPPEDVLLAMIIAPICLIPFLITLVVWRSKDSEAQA
T1 sequence (Q16602 23-461): as the sequence (Q16602 23-461) above
T1 sequence (O60894 27-148): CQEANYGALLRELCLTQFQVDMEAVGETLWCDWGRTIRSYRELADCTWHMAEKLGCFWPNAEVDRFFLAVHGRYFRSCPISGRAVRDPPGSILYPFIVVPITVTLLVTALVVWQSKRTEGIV

Take `CC[C@H](C)[C@H](NC(=O)[C@H](CCC(N)=O)NC(=O)[C@H](Cc1c[nH]cn1)NC(=O)[C@H](C)NC(=O)[C@H](CC(C)C)NC(=O)[C@H](CCCCN)NC(=O)[C@H](CCC(N)=O)NC(=O)[C@@H](NC(=O)[C@@H](NC(=O)[C@@H]1CSSC[C@H](NC(=O)CNC(=O)[C@H](Cc2ccccc2)NC(=O)[C@H](CO)NC(=O)[C@H](CCCNC(=N)N)NC(=O)[C@H](CC(C)C)NC(=O)CNC(=O)[C@H](CCC(N)=O)NC(=O)[C@H](Cc2ccccc2)NC(=O)[C@H](CC(N)=O)NC(=O)[C@H](CC(N)=O)NC(=O)[C@H](CCSC)NC(=O)[C@H](CO)NC(=O)[C@H](CCC(N)=O)NC(=O)[C@H](CCCNC(=N)N)NC(=O)[C@@H](N)Cc2ccc(O)cc2)C(=O)N[C@@H](CCCNC(=N)N)C(=O)N[C@@H](Cc2ccccc2)C(=O)NCC(=O)N[C@@H]([C@@H](C)O)C(=O)N1)[C@@H](C)O)C(C)C)C(=O)N[C@@H](Cc1ccc(O)cc1)C(=O)N[C@@H](CCC(N)=O)C(=O)N[C@@H](Cc1ccccc1)C(=O)N[C@H](C(=O)N[C@@H](CC(=O)O)C(=O)N[C@@H](CCCCN)C(=O)N[C@@H](CC(=O)O)C(=O)N[C@@H](CCCCN)C(=O)N[C@@H](CC(=O)O)C(=O)N[C@@H](CC(N)=O)C(=O)N[C@H](C(=O)N[C@@H](C)C(=O)N1CCC[C@H]1C(=O)N[C@@H](CCCNC(=N)N)C(=O)N[C@@H](CO)C(=O)N[C@@H](CCCCN)C(=O)N[C@H](C(=O)N[C@@H](CO)C(=O)N1CCC[C@H]1C(=O)N[C@@H](CCC(N)=O)C(=O)NCC(=O)N[C@@H](Cc1ccc(O)cc1)C(N)=O)[C@@H](C)CC)C(C)C)[C@@H](C)O` [ADM1-52]: the Emax in experiment [1] (setting [5]) stood at 63%. Further, in experiment [2], the “effect on HLME cell survival” value is on record as “minimal effects”. For the same molecule, the “effect on HLME cell proliferation” value in experiment [3] is “minimal effects”.

As for `CC[C@H](C)[C@H](NC(=O)[C@H](CCC(N)=O)NC(=O)[C@H](Cc1c[nH]cn1)NC(=O)[C@H](C)NC(=O)[C@H](CC(C)C)NC(=O)[C@H](CCCCN)NC(=O)[C@H](CCC(N)=O)NC(=O)[C@@H](NC(=O)[C@@H](NC(=O)[C@@H]1CSSC[C@H](NC(=O)CNC(=O)[C@@H](N)Cc2ccccc2)C(=O)N[C@@H](CCCNC(=N)N)C(=O)N[C@@H](Cc2ccccc2)C(=O)NCC(=O)N[C@@H]([C@@H](C)O)C(=O)N1)[C@@H](C)O)C(C)C)C(=O)N[C@@H](Cc1ccc(O)cc1)C(=O)N[C@@H](CCC(N)=O)C(=O)N[C@@H](Cc1ccccc1)C(=O)N[C@H](C(=O)N[C@@H](CC(=O)O)C(=O)N[C@@H](CCCCN)C(=O)N[C@@H](CC(=O)O)C(=O)N[C@@H](CCCCN)C(=O)N[C@@H](CC(=O)O)C(=O)N[C@@H](CC(N)=O)C(=O)N[C@H](C(=O)N[C@@H](C)C(=O)N1CCC[C@H]1C(=O)N[C@@H](CCCNC(=N)N)C(=O)N[C@@H](CO)C(=O)N[C@@H](CCCCN)C(=O)N[C@H](C(=O)N[C@@H](CO)C(=O)N1CCC[C@H]1C(=O)N[C@@H](CCC(N)=O)C(=O)NCC(=O)N[C@@H](Cc1ccc(O)cc1)C(N)=O)[C@@H](C)CC)C(C)C)[C@@H](C)O` [ADM14-52, reference compound], in experiment [1] (1321N1 cells stably expressing human CLR/RAMP1, cAMP read-out, 10-point dose-response in duplicate, start 1.0 μM, 3-fold serial dilution in DMSO), the 50% effective concentration (EC50) (commonly the concentration needed to bring the measured effect to its halfway point) is above 100 nM. Also, the Emax in experiment [1] (setting [5]) amounted to 69%; in experiment [4] (percentage of positive control ADM1-52), 102%. Also, the “effect on HLME cell survival” value in experiment [2] is on record as “minimal effects”. In experiment [3], the “effect on HLME cell proliferation” value was “minimal effects”.

As for `CC[C@H](C)[C@H](NC(=O)[C@H](CCC(N)=O)NC(=O)[C@H](Cc1c[nH]cn1)NC(=O)[C@H](C)NC(=O)[C@H](CC(C)C)NC(=O)[C@H](CCCCN)NC(=O)[C@H](CCC(N)=O)NC(=O)[C@@H](NC(=O)[C@@H](NC(=O)[C@@H]1CSSC[C@H](NC(=O)CNC(=O)[C@H](CCCCN)NC(C)=O)C(=O)N[C@@H](CCCNC(=N)N)C(=O)N[C@@H](Cc2ccccc2)C(=O)NCC(=O)N[C@@H]([C@@H](C)O)C(=O)N1)[C@@H](C)O)C(C)C)C(=O)N[C@@H](Cc1ccc(O)cc1)C(=O)N[C@@H](CCC(N)=O)C(=O)N[C@@H](Cc1ccccc1)C(=O)N[C@H](C(=O)N[C@@H](CC(=O)O)C(=O)N[C@@H](CCCCN)C(=O)N[C@@H](CC(=O)O)C(=O)N[C@@H](CCCCN)C(=O)N[C@@H](CC(=O)O)C(=O)N[C@@H](CC(N)=O)C(=O)N[C@@H](CO)C(=O)N[C@@H](C)C(=O)N1CCC[C@H]1C(=O)N[C@H](C(=O)N[C@@H](CC(=O)O)C(=O)N1CCC[C@H]1C(=O)N[C@@H](CO)C(=O)N[C@@H](CO)C(=O)N1CCC[C@H]1C(=O)N[C@@H](Cc1c[nH]cn1)C(=O)N[C@@H](CO)C(=O)N[C@@H](Cc1ccc(O)cc1)C(N)=O)C(C)C)[C@@H](C)O` [Analog B-6], the “effect on HLME cell survival” value in experiment [2] is reported as “minimal effects”.

`CCCCCCCCCCCCCCCC(=O)NCCCC[C@H](NC(=O)COCCOCCN)C(=O)NCC(=O)N[C@H]1CSSC[C@@H](C(=O)N[C@H](C(=O)N[C@H](C(=O)N[C@@H](CCC(N)=O)C(=O)N[C@@H](CCCCN)C(=O)N[C@@H](CC(C)C)C(=O)N[C@@H](C)C(=O)N[C@@H](Cc2c[nH]cn2)C(=O)N[C@@H](CCC(N)=O)C(=O)N[C@H](C(=O)N[C@@H](Cc2ccc(O)cc2)C(=O)N[C@@H](CCC(N)=O)C(=O)N[C@@H](Cc2ccccc2)C(=O)N[C@H](C(=O)N[C@@H](CC(=O)O)C(=O)N[C@@H](CCCCN)C(=O)N[C@@H](CC(=O)O)C(=O)N[C@@H](CCCCN)C(=O)N[C@@H](CC(=O)O)C(=O)N[C@@H](CC(N)=O)C(=O)N[C@H](C(=O)N[C@@H](CC(=O)O)C(=O)N2CCC[C@H]2C(=O)N[C@@H](CO)C(=O)N[C@@H](CO)C(=O)N2CCC[C@H]2C(=O)N[C@@H](Cc2c[nH]cn2)C(=O)N[C@@H](CO)C(=O)N[C@@H](Cc2ccc(O)cc2)C(N)=O)C(C)C)[C@@H](C)O)[C@@H](C)CC)C(C)C)[C@@H](C)O)NC(=O)[C@H]([C@@H](C)O)NC(=O)CNC(=O)[C@H](Cc2ccccc2)NC(=O)[C@H](CCCNC(=N)N)NC1=O` [Analog D-4]: the Emax came to 67% in experiment [1] and 82% in experiment [4].

In the case of `CCCCCCCCCCCCCCCC(=O)NCCCC[C@H](NC(=O)COCCOCCN)C(=O)NCC(=O)N[C@H]1CSSC[C@@H](C(=O)N[C@H](C(=O)N[C@H](C(=O)N[C@@H](CCC(N)=O)C(=O)N[C@@H](CCCCN)C(=O)N[C@@H](CC(C)C)C(=O)N[C@@H](C)C(=O)N[C@@H](Cc2c[nH]cn2)C(=O)N[C@@H](CCC(N)=O)C(=O)N[C@H](C(=O)N[C@@H](Cc2ccc(O)cc2)C(=O)N[C@@H](CCC(N)=O)C(=O)N[C@@H](Cc2ccccc2)C(=O)N[C@H](C(=O)N[C@@H](CC(=O)O)C(=O)N[C@@H](CCCCN)C(=O)N[C@@H](CC(=O)O)C(=O)N[C@H](C(=O)N[C@@H](C)C(=O)N2CCC[C@H]2C(=O)N[C@@H](CCCNC(=N)N)C(=O)N[C@@H](CO)C(=O)N[C@@H](CCCCN)C(=O)N[C@H](C(=O)N[C@@H](CO)C(=O)N2CCC[C@H]2C(=O)N[C@@H](CCC(N)=O)C(=O)NCC(=O)N[C@@H](Cc2ccc(O)cc2)C(N)=O)[C@@H](C)CC)C(C)C)[C@@H](C)O)[C@@H](C)CC)C(C)C)[C@@H](C)O)NC(=O)[C@H]([C@@H](C)O)NC(=O)CNC(=O)[C@H](Cc2ccccc2)NC(=O)[C@H](CCCNC(=N)N)NC1=O` [Analog D-6], the Emax in experiment [1] came out at 56%; in experiment [4], 74%.
